Laboratory results taken from ChEMBL document CHEMBL3045518, “Synthesis of novel 3-[5-ethyl-2-(2-phenoxy-ethyl)-pyridin]-5-substituted isoxazoline libraries via 1,3-dipolar cycloaddition and evaluation of antimicrobial activities” (2006).
In brackets after ≈: the same amount, converted by molar mass.

How the values were obtained:
Format in all cases: functional
Bacillus subtilis [1] = test: Antibacterial activity against Bacillus subtilis at 25 ug/disk after 24 hr by disk diffusion method; settings: read-out: DIZ
[2] = system: Xanthomonas euvesicatoria pv. sesami; test: Antibacterial activity against Xanthomonas campestris pv. sesami by microdilution method
Penicillium sp. [3] = test: Antifungal activity against Penicillium sp. after 48 hr by microdilution method
Escherichia coli [4] = test: Antibacterial activity against Escherichia coli by microdilution method
Pseudomonas fluorescens [5] = test: Antibacterial activity against Pseudomonas fluorescens by microdilution method
Fusarium oxysporum [6] = test: Antifungal activity against Fusarium oxysporum at 25 ug/disk after 48 hr by disk diffusion method; settings: for zone of inhibition at 25 µg/disc: read-out: DIZ
Bacillus subtilis [7] = test: Antibacterial activity against Bacillus subtilis by microdilution method
Aspergillus niger [8] = test: Antifungal activity against Aspergillus niger after 48 hr by microdilution method
Pseudomonas fluorescens [9] = test: Antibacterial activity against Pseudomonas fluorescens at 25 ug/disk after 24 hr by disk diffusion method; settings: read-out: DIZ
Xanthomonas oryzae [10] = test: Antibacterial activity against Xanthomonas oryzae at 25 ug/disk after 24 hr by disk diffusion method; settings: read-out: DIZ
Aspergillus flavus [11] = test: Antifungal activity against Aspergillus flavus at 25 ug/disk after 48 hr by disk diffusion method; settings: for zone of inhibition at 25 µg/disc: read-out: DIZ
Fusarium verticillioides [12] = test: Antifungal activity against Fusarium verticillioides after 48 hr by microdilution method
Penicillium sp. [13] = test: Antifungal activity against Penicillium sp. at 25 ug/disk after 48 hr by disk diffusion method; settings: for zone of inhibition at 25 µg/disc: read-out: DIZ
Fusarium oxysporum [14] = test: Antifungal activity against Fusarium oxysporum after 48 hr by microdilution method
Escherichia coli [15] = test: Antibacterial activity against Escherichia coli at 25 ug/disk after 24 hr by disk diffusion method; settings: read-out: DIZ
Xanthomonas oryzae [16] = test: Antibacterial activity against Xanthomonas oryzae by microdilution method
Trichoderma [17] = test: Antifungal activity against Trichoderma sp. after 48 hr by microdilution method
Fusarium verticillioides [18] = test: Antifungal activity against Fusarium verticillioides at 25 ug/disk after 48 hr by disk diffusion method; settings: for zone of inhibition at 25 µg/disc: read-out: DIZ
Trichoderma [19] = test: Antifungal activity against Trichoderma sp. at 25 ug/disk after 48 hr by disk diffusion method; settings: for zone of inhibition at 25 µg/disc: read-out: DIZ
[20] = system: Xanthomonas euvesicatoria pv. sesami; test: Antibacterial activity against Xanthomonas campestris pv. sesami at 25 ug/disk after 24 hr by disk diffusion method; settings: read-out: DIZ
Aspergillus flavus [21] = test: Antifungal activity against Aspergillus flavus after 48 hr by microdilution method
Aspergillus niger [22] = test: Antifungal activity against Aspergillus niger at 25 ug/disk after 48 hr by disk diffusion method; settings: for zone of inhibition at 25 µg/disc: read-out: DIZ

Compound | zone of inhibition at 25 µg/disc (Bacillus subtilis [1]) | MIC [2] | MIC (Penicillium sp. [3]) | MIC (Escherichia coli [4]) | MIC (Pseudomonas fluorescens [5]) | zone of inhibition at 25 µg/disc (Fusarium oxysporum [6]) | MIC (Bacillus subtilis [7]) | MIC (Aspergillus niger [8]) | zone of inhibition at 25 µg/disc (Pseudomonas fluorescens [9]) | zone of inhibition at 25 µg/disc (Xanthomonas oryzae [10]) | zone of inhibition at 25 µg/disc (Aspergillus flavus [11]) | MIC (Fusarium verticillioides [12]) | zone of inhibition at 25 µg/disc (Penicillium sp. [13]) | MIC (Fusarium oxysporum [14]) | zone of inhibition at 25 µg/disc (Escherichia coli [15]) | MIC (Xanthomonas oryzae [16]) | MIC (Trichoderma [17]) | zone of inhibition at 25 µg/disc (Fusarium verticillioides [18]) | zone of inhibition at 25 µg/disc [20] | MIC (Aspergillus flavus [21]) | further results
CCc1ccc(CCOc2ccc(C3=NOC(c4ccccc4)C3)cc2)nc1 (stereo unspecified) | 5 mm | 27 µg/mL (≈ 72.5 µM) | 23 µg/mL (≈ 61.8 µM) | 28 µg/mL (≈ 75.2 µM) | 26 µg/mL (≈ 69.8 µM) | 4 mm | 27 µg/mL (≈ 72.5 µM) | 22 µg/mL (≈ 59.1 µM) | 6 mm | 4 mm | 4 mm | 20 µg/mL (≈ 53.7 µM) | 3 mm | 21 µg/mL (≈ 56.4 µM) | 6 mm | 25 µg/mL (≈ 67.1 µM) | 20 µg/mL (≈ 53.7 µM) | 3 mm | 4 mm | 24 µg/mL (≈ 64.4 µM) | zone of inhibition at 25 µg/disc (Trichoderma [19]): 6 mm; zone of inhibition at 25 µg/disc (Aspergillus niger [22]): 3 mm
CN(C)[C@@H]1C(O)=C(C(N)=O)C(=O)[C@@]2(O)C(O)=C3C(=O)c4c(O)cccc4[C@@](C)(O)[C@H]3C[C@@H]12 [TETRACYCLINE] |  | 9 µg/mL (≈ 20.3 µM) |  |  |  |  |  |  |  | 12 mm |  |  |  |  |  | 13 µg/mL (≈ 29.3 µM) |  |  | 12 mm |  | 
CCc1ccc(CCOc2ccc(C3=NOC(Cc4ccc5c(c4)OCO5)C3)cc2)nc1 (stereo unspecified) | 5 mm | 21 µg/mL (≈ 48.8 µM) | 21 µg/mL (≈ 48.8 µM) | 22 µg/mL (≈ 51.1 µM) | 20 µg/mL (≈ 46.5 µM) | 4 mm | 25 µg/mL (≈ 58.1 µM) | 22 µg/mL (≈ 51.1 µM) | 7 mm | 3 mm | 3 mm | 18 µg/mL (≈ 41.8 µM) | 2 mm | 22 µg/mL (≈ 51.1 µM) | 6 mm | 22 µg/mL (≈ 51.1 µM) | 20 µg/mL (≈ 46.5 µM) | 3 mm | 4 mm | 21 µg/mL (≈ 48.8 µM) | zone of inhibition at 25 µg/disc (Trichoderma [19]): 4 mm; zone of inhibition at 25 µg/disc (Aspergillus niger [22]): 3 mm
NYSTATIN |  |  | 10 µg/mL |  |  |  |  | 15 µg/mL |  |  |  | 9 µg/mL |  | 11 µg/mL |  |  | 12 µg/mL |  |  | 15 µg/mL | inhibition zone (IZ) (Fusarium oxysporum [6]): 14 mm; inhibition zone (IZ) (Aspergillus flavus [11]): 10 mm; inhibition zone (IZ) (Penicillium sp. [13]): 10 mm; inhibition zone (IZ) (Fusarium verticillioides [18]): 12 mm; inhibition zone (IZ) (Trichoderma [19]): 16 mm; inhibition zone (IZ) (Aspergillus niger [22]): 8 mm
CCc1ccc(CCOc2ccc(C3=NOC(C#N)C3)cc2)nc1 (stereo unspecified) | 7 mm | 20 µg/mL (≈ 62.2 µM) | 20 µg/mL (≈ 62.2 µM) | 21 µg/mL (≈ 65.3 µM) | 23 µg/mL (≈ 71.6 µM) | 5 mm | 27 µg/mL (≈ 84 µM) | 20 µg/mL (≈ 62.2 µM) | 6 mm | 4 mm | 3 mm | 18 µg/mL (≈ 56 µM) | 2 mm | 19 µg/mL (≈ 59.1 µM) | 7 mm | 22 µg/mL (≈ 68.5 µM) | 20 µg/mL (≈ 62.2 µM) | 10 mm | 5 mm | 21 µg/mL (≈ 65.3 µM) | zone of inhibition at 25 µg/disc (Trichoderma [19]): 4 mm; zone of inhibition at 25 µg/disc (Aspergillus niger [22]): 2 mm
CCc1ccc(CCOc2ccc(C3=NOC(Cc4ccc(O)c(OC)c4)C3)cc2)nc1 (stereo unspecified) | 12 mm | 10 µg/mL (≈ 23.1 µM) | 11 µg/mL (≈ 25.4 µM) | 14 µg/mL (≈ 32.4 µM) | 12 µg/mL (≈ 27.7 µM) | 13 mm | 18 µg/mL (≈ 41.6 µM) | 16 µg/mL (≈ 37 µM) | 18 mm | 12 mm | 10 mm | 10 µg/mL (≈ 23.1 µM) | 9 mm | 12 µg/mL (≈ 27.7 µM) | 14 mm | 13 µg/mL (≈ 30.1 µM) | 13 µg/mL (≈ 30.1 µM) | 11 mm | 13 mm | 15 µg/mL (≈ 34.7 µM) | zone of inhibition at 25 µg/disc (Trichoderma [19]): 15 mm; zone of inhibition at 25 µg/disc (Aspergillus niger [22]): 7 mm
CCc1ccc(CCOc2ccc(C3=NOC(C(=O)OC)C3)cc2)nc1 (stereo unspecified) | 5 mm | 22 µg/mL (≈ 62.1 µM) | 24 µg/mL (≈ 67.7 µM) | 24 µg/mL (≈ 67.7 µM) | 22 µg/mL (≈ 62.1 µM) | 4 mm | 27 µg/mL (≈ 76.2 µM) | 22 µg/mL (≈ 62.1 µM) | 5 mm | 3 mm | 4 mm | 22 µg/mL (≈ 62.1 µM) | 2 mm | 20 µg/mL (≈ 56.4 µM) | 6 mm | 27 µg/mL (≈ 76.2 µM) | 20 µg/mL (≈ 56.4 µM) | 3 mm | 3 mm | 24 µg/mL (≈ 67.7 µM) | zone of inhibition at 25 µg/disc (Trichoderma [19]): 5 mm; zone of inhibition at 25 µg/disc (Aspergillus niger [22]): 3 mm
CCc1ccc(CCOc2ccc(C3=NOC(Cc4ccc(OC)c(OC)c4)C3)cc2)nc1 (stereo unspecified) | 14 mm | 11 µg/mL (≈ 24.6 µM) | 12 µg/mL (≈ 26.9 µM) | 15 µg/mL (≈ 33.6 µM) | 15 µg/mL (≈ 33.6 µM) | 12 mm | 20 µg/mL (≈ 44.8 µM) | 18 µg/mL (≈ 40.3 µM) | 14 mm | 9 mm | 7 mm | 11 µg/mL (≈ 24.6 µM) | 8 mm | 13 µg/mL (≈ 29.1 µM) | 15 mm | 15 µg/mL (≈ 33.6 µM) | 15 µg/mL (≈ 33.6 µM) | 10 mm | 10 mm | 17 µg/mL (≈ 38.1 µM) | zone of inhibition at 25 µg/disc (Trichoderma [19]): 13 mm; zone of inhibition at 25 µg/disc (Aspergillus niger [22]): 6 mm
CCc1ccc(CCOc2ccc(C3=NOC(CO)C3)cc2)nc1 (stereo unspecified) | 14 mm | 10 µg/mL (≈ 30.6 µM) | 9 µg/mL (≈ 27.6 µM) | 14 µg/mL (≈ 42.9 µM) | 12 µg/mL (≈ 36.8 µM) | 15 mm | 18 µg/mL (≈ 55.1 µM) | 15 µg/mL (≈ 46 µM) | 17 mm | 13 mm | 9 mm | 10 µg/mL (≈ 30.6 µM) | 11 mm | 10 µg/mL (≈ 30.6 µM) | 13 mm | 12 µg/mL (≈ 36.8 µM) | 13 µg/mL (≈ 39.8 µM) | 12 mm | 13 mm | 16 µg/mL (≈ 49 µM) | zone of inhibition at 25 µg/disc (Trichoderma [19]): 15 mm; zone of inhibition at 25 µg/disc (Aspergillus niger [22]): 8 mm
CN[C@@H]1[C@H](O[C@H]2[C@H](O[C@H]3[C@H](O)[C@@H](O)[C@H](N=C(N)N)[C@@H](O)[C@@H]3N=C(N)N)O[C@@H](C)[C@]2(O)C=O)O[C@@H](CO)[C@H](O)[C@H]1O [STREPTOMYCIN] | 13 mm |  |  | 13 µg/mL (≈ 22.4 µM) | 12 µg/mL (≈ 20.6 µM) |  | 19 µg/mL (≈ 32.7 µM) |  | 17 mm |  |  |  |  |  | 14 mm |  |  |  |  |  | 
